Measurements: patent US12479830B2, “Homopiperazinyl and homopiperidinyl quinazolin-4(3H)-one derivatives having multimodal activity against pain” (ESTEVE PHARMACEUTICALS, S.A., priority 2019, dated 2025)

How the values were obtained:
[1] = molecular target: Human α2δ-1 subunit of Cav2.2 calcium channel (Homo sapiens, UniProt P54289); assay: Human α2δ-1 subunit of Cav2.2 calcium channel assay ([3H]-gabapentin binding); conditions: binding to the α2δ-1 subunit of voltage-gated calcium channels, expressed as Ki class; + also covers inhibition between 1% and 50%
Summary of the method: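 Human α2δ-1 enriched membranes (2.5 μg) incubated 60 min at 27° C. with 15 nM [3H]-gabapentin in 10 mM Hepes-KOH pH 7.4; non-specific binding with 10 μM pregabalin. Filtration binding; % inhibition at 1 or 10 μM, or Ki from five concentrations.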

Human σ1 receptor = molecular target: T1, Human σ1 receptor (Homo sapiens, UniProt Q99720); assay: Human σ1 receptor radioligand assay ([3H](+)-pentazocine binding); conditions: binding to the σ1 receptor, expressed as Ki class; + also covers inhibition between 1% and 50%
T1 construct: expressed in transfected cells; host or cells: HEK-293
Summary of the method: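 Membranes (7 μg) were incubated with 5 nM [3H](+)-pentazocine in 50 mM Tris-HCl pH 8 for 120 min at 37° C. Non-specific binding was defined with 10 μM haloperidol. Values are % inhibition at 1 or 10 μM or Ki from five concentrations, read by filtration and scintillation counting.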

T1 sequence (Q99720 whole entry): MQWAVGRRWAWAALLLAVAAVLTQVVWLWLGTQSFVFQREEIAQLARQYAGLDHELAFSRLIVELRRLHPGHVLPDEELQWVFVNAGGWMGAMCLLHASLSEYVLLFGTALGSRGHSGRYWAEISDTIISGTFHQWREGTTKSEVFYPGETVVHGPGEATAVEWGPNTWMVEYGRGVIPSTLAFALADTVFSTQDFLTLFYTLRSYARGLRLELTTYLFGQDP
Sequence of Human α2δ-1 subunit of Cav2.2 calcium channel (P54289 25-1103): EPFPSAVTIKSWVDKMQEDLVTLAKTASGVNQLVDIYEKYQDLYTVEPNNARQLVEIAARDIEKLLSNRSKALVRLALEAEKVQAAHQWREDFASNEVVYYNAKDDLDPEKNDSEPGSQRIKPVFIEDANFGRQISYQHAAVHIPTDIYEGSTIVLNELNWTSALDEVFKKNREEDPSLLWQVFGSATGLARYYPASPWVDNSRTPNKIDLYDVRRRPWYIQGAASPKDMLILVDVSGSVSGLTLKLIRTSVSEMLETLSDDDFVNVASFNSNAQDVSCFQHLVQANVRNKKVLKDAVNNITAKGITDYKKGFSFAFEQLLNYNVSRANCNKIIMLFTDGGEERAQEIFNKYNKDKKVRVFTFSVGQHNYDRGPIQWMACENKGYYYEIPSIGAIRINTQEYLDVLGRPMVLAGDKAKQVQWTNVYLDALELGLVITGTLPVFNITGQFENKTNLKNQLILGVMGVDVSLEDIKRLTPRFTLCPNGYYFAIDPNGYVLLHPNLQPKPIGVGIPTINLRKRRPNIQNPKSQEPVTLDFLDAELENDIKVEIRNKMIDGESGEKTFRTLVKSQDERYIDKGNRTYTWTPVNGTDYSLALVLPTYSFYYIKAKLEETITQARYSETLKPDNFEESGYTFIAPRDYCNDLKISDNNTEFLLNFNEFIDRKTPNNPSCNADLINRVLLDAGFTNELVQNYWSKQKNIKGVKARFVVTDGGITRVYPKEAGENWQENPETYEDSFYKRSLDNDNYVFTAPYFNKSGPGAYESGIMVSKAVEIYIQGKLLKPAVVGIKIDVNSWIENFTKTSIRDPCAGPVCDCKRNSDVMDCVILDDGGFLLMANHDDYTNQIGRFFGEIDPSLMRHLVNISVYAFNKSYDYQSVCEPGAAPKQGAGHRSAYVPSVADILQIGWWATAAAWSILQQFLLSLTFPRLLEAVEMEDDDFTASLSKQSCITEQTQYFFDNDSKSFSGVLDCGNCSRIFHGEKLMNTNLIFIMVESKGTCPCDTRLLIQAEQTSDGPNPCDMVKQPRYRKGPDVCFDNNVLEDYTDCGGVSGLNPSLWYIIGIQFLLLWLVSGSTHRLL

With CCCC(c1nc2ccc(F)c(F)c2c(=O)n1CC)N1CCCNCC1 (centres unmarked) [Example 81, 2-(1-(1,4-diazepan-1-yl)butyl)-3-ethyl-5,6-difluoroquinazolin-4(3H)-one] the Ki [1] was less than 500 nM and the Ki (Human σ1 receptor) was 500 to 1000 nM.

In the case of CCCC(c1nc2ccc(Br)c(Cl)c2c(=O)n1CC)N1CCCNCC1 (centres unmarked) [Example 82, 2-(1-(1,4-diazepan-1-yl)butyl)-6-bromo-5-chloro-3-ethylquinazolin-4(3H)-one], the Ki [1] is reported as 500 to 5000 nM and the Ki (Human σ1 receptor) is reported as 500 to 1000 nM.

Work on CCCC(c1nc2ccc(Br)c(Cl)c2c(=O)n1CC)N1CCCN(CC)CC1 (centres unmarked) [Example 83, 6-bromo-5-chloro-3-ethyl-2-(1-(4-ethyl-1,4-diazepan-1-yl)butyl)quinazolin-4(3H)-one] yielded a Ki [1] greater than 5000 nM and a Ki (Human σ1 receptor) of less than 500 nM.

CCCC(c1nc2ccc(Br)cc2c(=O)n1C)N1CCCN(C)CC1 (centres unmarked) [Example 84, 6-bromo-3-methyl-2-(1-(4-methyl-1,4-diazepan-1-yl)butyl)quinazolin-4(3H)-one] gave a Ki [1] of 500 to 5000 nM and a Ki (Human σ1 receptor) of less than 500 nM.

Compound CCCC(c1nc2ccc(Br)cc2c(=O)n1C)N1CCCN(CC)CC1 (centres unmarked) [Example 85, 6-bromo-2-(1-(4-ethyl-1,4-diazepan-1-yl)butyl)-3-methylquinazolin-4(3H)-one] has a Ki [1] greater than 5000 nM and a Ki (Human σ1 receptor) of less than 500 nM.

Compound CCCC(c1nc2cccnc2c(=O)n1CC)N1CCCN(C)CC1 (centres unmarked) [Example 86, 3-ethyl-2-(1-(4-methyl-1,4-diazepan-1-yl)butyl)pyrido[3,2-d]pyrimidin-4(3H)-one] has a Ki [1] greater than 5000 nM and a Ki (Human σ1 receptor) greater than 1000 nM.

Work on CCCC(c1nc2cc(Cl)c(Cl)cc2c(=O)n1CC)N1CCCN(C)CC1 (centres unmarked) [Example 87, 6,7-dichloro-3-ethyl-2-(1-(4-methyl-1,4-diazepan-1-yl)butyl)quinazolin-4(3H)-one] yielded a Ki [1] of less than 500 nM and a Ki (Human σ1 receptor) of less than 500 nM.

Work on CCCC(c1nc2cccnc2c(=O)n1CC)N1CCCN(CC)CC1 (centres unmarked) [Example 88, 3-ethyl-2-(1-(4-ethyl-1,4-diazepan-1-yl)butyl)pyrido[3,2-d]pyrimidin-4(3H)-one] yielded a Ki [1] greater than 5000 nM and a Ki (Human σ1 receptor) greater than 1000 nM.

CCCC(c1nc2cc(F)c(Cl)cc2c(=O)n1CC)N1CCCN(C)CC1 (centres unmarked) [Example 89, 6-chloro-3-ethyl-7-fluoro-2-(1-(4-methyl-1,4-diazepan-1-yl)butyl)quinazolin-4(3H)-one] gave a Ki [1] of less than 500 nM and a Ki (Human σ1 receptor) of less than 500 nM.

For CCCC(c1nc2cc(F)c(Cl)cc2c(=O)n1CC)N1CCCNCC1 (centres unmarked) [Example 90, 2-(1-(1,4-diazepan-1-yl)butyl)-6-chloro-3-ethyl-7-fluoroquinazolin-4(3H)-one], the Ki [1] was less than 500 nM and the Ki (Human σ1 receptor) was greater than 1000 nM.

Compound CCCC(c1nc2cc(Cl)c(Cl)cc2c(=O)n1CC)N1CCCNCC1 (centres unmarked) [Example 91, 2-(1-(1,4-diazepan-1-yl)butyl)-6,7-dichloro-3-ethylquinazolin-4(3H)-one] has a Ki [1] of less than 500 nM and a Ki (Human σ1 receptor) of 500 to 1000 nM.

Work on CCC[C@H](c1nc2ccc(Br)cc2c(=O)n1CC)N1CCN[C@H](C)CC1 [Example 92, 6-bromo-3-ethyl-2-((R)-1-((R)-5-methyl-1,4-diazepan-1-yl)butyl)quinazolin-4(3H)-one] yielded a Ki [1] of 500 to 5000 nM and a Ki (Human σ1 receptor) greater than 1000 nM.

CCC[C@H](c1nc2ccc(Br)cc2c(=O)n1CC)N1CCN[C@@H](C)CC1 [Example 93, 6-bromo-3-ethyl-2-((R)-1-((S)-5-methyl-1,4-diazepan-1-yl)butyl)quinazolin-4(3H)-one] gave a Ki [1] of less than 500 nM and a Ki (Human σ1 receptor) of 500 to 1000 nM.

For CCC[C@@H](c1nc2ccc(Br)cc2c(=O)n1CC)N1CCN[C@H](C)CC1 [Example 94, 6-bromo-3-ethyl-2-((S)-1-((R)-5-methyl-1,4-diazepan-1-yl)butyl)quinazolin-4(3H)-one], the Ki [1] was 500 to 5000 nM and the Ki (Human σ1 receptor) was greater than 1000 nM.

CCC[C@@H](c1nc2ccc(Br)cc2c(=O)n1CC)N1CCN[C@@H](C)CC1 [Example 95, 6-bromo-3-ethyl-2-((S)-1-((S)-5-methyl-1,4-diazepan-1-yl)butyl)quinazolin-4(3H)-one] gave a Ki [1] greater than 5000 nM and a Ki (Human σ1 receptor) greater than 1000 nM.

CCC[C@H](c1nc2cc(F)c(Br)cc2c(=O)n1CC)N1CCNC[C@H](C)C1 [Example 96, 6-Bromo-3-ethyl-7-fluoro-2-((R)-1-((S)-6-methyl-1,4-diazepan-1-yl)butyl)quinazolin-4(3H)-one] was tested, and the Ki [1] was less than 500 nM and the Ki (Human σ1 receptor) was 500 to 1000 nM.

In the case of CCC[C@H](c1nc2cc(F)c(Br)cc2c(=O)n1CC)N1CCNC[C@@H](C)C1 [Example 97, 6-bromo-3-ethyl-7-fluoro-2-((R)-1-((R)-6-methyl-1,4-diazepan-1-yl)butyl)quinazolin-4(3H)-one], the Ki [1] is reported as less than 500 nM and the Ki (Human σ1 receptor) is reported as 500 to 1000 nM.

Compound CCC[C@@H](c1nc2cc(F)c(Br)cc2c(=O)n1CC)N1CCNC[C@H](C)C1 [Example 98] has a Ki [1] of 500 to 5000 nM and a Ki (Human σ1 receptor) greater than 1000 nM.

CCC[C@@H](c1nc2cc(F)c(Br)cc2c(=O)n1CC)N1CCNC[C@@H](C)C1 [Example 99] gave a Ki [1] of 500 to 5000 nM and a Ki (Human σ1 receptor) greater than 1000 nM.

CCCC(c1nc2cccnc2c(=O)n1CC)N1CCCNCC1 (centres unmarked) [Example 100, 2-(1-(1,4-diazepan-1-yl)butyl)-3-ethylpyrido[3,2-d]pyrimidin-4(3H)-one] gave a Ki [1] greater than 5000 nM and a Ki (Human σ1 receptor) greater than 1000 nM.

CCC[C@H](c1nc2ccc(Br)cc2c(=O)n1CC)N1CCN(C)C[C@H](COC)C1 [Example 105, 6-Bromo-3-ethyl-2-((R)-1-((S)-6-(methoxymethyl)-4-methyl-1,4-diazepan-1-yl)butyl)quin-4 (3H)-one] showed a Ki [1] of 500 to 5000 nM and a Ki (Human σ1 receptor) greater than 1000 nM.

Compound CCC[C@H](c1nc2ccc(Br)cc2c(=O)n1CC)N1CCN(C)C[C@@H](COC)C1 [Example 106, 6-bromo-3-ethyl-2-((R)-1-((R)-6-(methoxymethyl)-4-methyl-1,4-diazepan-1-yl)butyl)quinazolin-4(3H)-one] has a Ki [1] of less than 500 nM and a Ki (Human σ1 receptor) greater than 1000 nM.

CCC[C@@H](c1nc2ccc(Br)cc2c(=O)n1CC)N1CCN(C)C[C@H](COC)C1 [Example 107, 6-bromo-3-ethyl-2-((S)-1-((S)-6-(methoxymethyl)-4-methyl-1,4-diazepan-1-yl)butyl)quinazolin-4(31-)-one] gave a Ki [1] of 500 to 5000 nM and a Ki (Human σ1 receptor) of 500 to 1000 nM.

In the case of CCC[C@@H](c1nc2ccc(Br)cc2c(=O)n1CC)N1CCN(C)C[C@@H](COC)C1 [Example 108, 6-bromo-3-ethyl-2-((S)-1-((R)-6-(methoxymethyl)-4-methyl-1,4-diazepan-1-yl)butyl)quinazolin-4(3/1)-one], the Ki [1] is reported as greater than 5000 nM and the Ki (Human σ1 receptor) is reported as 500 to 1000 nM.

Work on CCC[C@H](c1nc2cc(Cl)c(Cl)cc2c(=O)n1CC)N1CCNC[C@H](C)C1 [Example 109, 6,7-Dichloro-3-ethyl-2-((R)-1-((S)-6-methyl-1,4-diazepan-1-yl)butyl)quinazolin-4(3H)-one] yielded a Ki [1] of less than 500 nM and a Ki (Human σ1 receptor) greater than 1000 nM.

CCC[C@H](c1nc2cc(Cl)c(Cl)cc2c(=O)n1CC)N1CCNC[C@@H](C)C1 [Example 110, 6,7-dichloro-3-ethyl-2-((R)-1-((R)-6-methyl-1,4-diazepan-1-yl)butyl)quinazolin-4(3H)-one] was tested, and the Ki [1] was less than 500 nM and the Ki (Human σ1 receptor) was greater than 1000 nM.

CCC[C@@H](c1nc2cc(Cl)c(Cl)cc2c(=O)n1CC)N1CCNC[C@H](C)C1 [Example 111, 6,7-dichloro-3-ethyl-2-((S)-1-((S)-6-methyl-1,4-diazepan-1-yl)butyl)quinazolin-4(3H)-one] gave a Ki [1] of 500 to 5000 nM and a Ki (Human σ1 receptor) greater than 1000 nM.

CCC[C@@H](c1nc2cc(Cl)c(Cl)cc2c(=O)n1CC)N1CCNC[C@@H](C)C1 [Example 112, 6,7-dichloro-3-ethyl-2-((S)-1-((R)-6-methyl-1,4-diazepan-1-yl)butyl)quinazolin-4 (3H)-one] gave a Ki [1] greater than 5000 nM and a Ki (Human σ1 receptor) greater than 1000 nM.
